Patent US11161881B2, “Composition comprising a peptide and an inhibitor of viral neuraminidase” (priority 2010, dated 2021)

Legend:
[1] = tested on: influenza strain A (PR8/34); test: Relative lung weight as a measure of pulmonary inflammation in mice infected with influenza A; type: in vivo, mice (strain C57BL/6); conditions: repeated on days 2 and 4
Procedure: Infection with influenza virus causes the development of a pulmonary inflammation. Laboratory mice (strain C57BL/6, 8 weeks old) were infected per-nasal with the influenza strain A (PR8/34) at a dose of 150 PFU. On days 3, 5, 7 and 9 following the infection, the lungs were taken out of 8 mice, respectively, and the relative lung weight was determined as a measure of the pulmonary inflammation.
Treatment of the pulmonary inflammation by administering the neuraminidase inhibitor or administering a combination of neuraminidase inhibitor and peptide AP301. Laboratory mice (strain C57BL/6, 8 weeks old) were infected per-nasal with the influenza strain A (PR8/34) at a dose of 150 PFU. Subsequently, each test animal received an oral administration of 10 mg/kg Oseltamivir (neuraminidase inhibitor) and an intratracheal administration of 10 μg/test animal of peptide AP301. The treatment was repeated on test days 2 and 4. On days 5, 7 and 9 following the infection, the lungs were taken out of 30 mice, respectively, and the relative lung weight was determined as a measure of the pulmonary inflammation. The results are shown graphically in FIG. 2. […]
On days 7 and 9 following the infection, the lungs were taken out of 20 mice, respectively, and the relative lung weight was determined as a measure of the pulmonary inflammation. […]

[2] = tested on: interleukin-6 (IL-6) release from fresh human whole blood; test: Ex vivo release of interleukin-6 from fresh human whole blood (ELISA); type: cell-based; conditions: for concentration of IL-6: human whole blood cultures, 24 hours, n = 5
Text: Ex vivo assessment of proinflammatory properties of the AP301 peptide in human whole blood. […] In this study, fresh human whole blood has been used, as it represents an approved predictive model system for the assessment of inflammatory response in vivo.
Summary of methodology. It was the goal of this study to determine the proinflammatory signalling capacity of the peptide AP301. Whole blood cultures were used and the secretion of interleukin-6 (IL-6), a very sensitive marker for proinflammatory stimulation, was quantified by ELISA.
Test system 25 ml of freshly taken heparinized blood from • 5 healthy volunteers (HV) was used in the tests. […]
Whole blood cultures. Whole blood (WB) cultures are performed by pipetting 1 ml WB into wells of 24-well-plates. In each experiment, unstimulated and control-stimulated cultures were included.
If possible, the substances and stimulants to be investigated were always added in an identical volume to each well of a given experiment, which is not greater than 10% of the total volume contained in a well. Unstimulated controls received PBS. Volume adjustments and dilutions for different treatments were also done with PBS.
The content of each well was mixed and the plates incubated at 37° C. and 5% CO2 for 24 hours. After incubation the content of each well was transferred to a fresh 1.5 ml microtube and centrifuged at 8,000-9,000×g for 15 minutes. The supernatant of each sample was transferred individually to two 1.5 ml microtubes and kept at −20° C. until use.
Detection of interleukin-6. Interleukin-6 was quantified by a specific ELISA (Human IL-6 ELISA Set, BD Biosciences, Cat. No. 555220) employing an anti-human IL-6 antibody as capture antibody, a biotinylated anti-human IL-6 detection antibody, avidin-horseradish peroxidase conjugate as enzyme reagent and recombinant IL-6 as standard. Absorbance measurement was performed at 450 nm using the Packard FusionReader.
Data analysis. The results for each plate were stored and evaluated using the FusionDataAnalysis Software. […]

CCOC(=O)C1=C[C@@H](OC(CC)CC)[C@H](NC(C)=O)[C@@H](N)C1 [Oseltamivir]
reduction of pulmonary inflammation, as measured by the lung weight ([1]; Example 2: 150 PFU per-nasal, Oseltamivir 10 mg/kg oral, AP301 10 μg/test animal intratracheal, lungs on days 5, 7 and 9): just a moderate effect on reducing the pulmonary inflammation

C[C@@H]1NC(=O)CNC(=O)[C@H](CCC(=O)O)NC(=O)[C@@H]2CCCN2C(=O)[C@H]([C@@H](C)O)NC(=O)[C@H](CCC(=O)O)NC(=O)[C@H](CCCNC(=N)N)NC(=O)[C@H](CCC(N)=O)NC(=O)CNC(=O)[C@@H](N)CSSC[C@@H](C(=O)O)NC(=O)[C@H](Cc2ccc(O)cc2)NC(=O)[C@H](Cc2c[nH]c3ccccc23)NC(=O)[C@@H]2CCCN2C(=O)[C@H](CCCCN)NC(=O)[C@H](C)NC(=O)[C@H](CCC(=O)O)NC1=O [AP301, (NH2) Cys-Gly-Gln-Arg-Glu-Thr-Pro-Glu-Gly-Ala-Glu-Ala-Lys-Pro-Trp-Tyr-Cys (COOH)]
induction of IL-6 secretion (in words) ([2]; all concentrations tested (10 μg/ml to 1 ng/ml for peptide; high and low doses of LPS), five healthy donors): did not induce any detectable level of IL-6 secretion | TNF receptor binding activity / proinflammatory response (concluded from IL-6 release) ([2]; ex vivo human whole blood model): does not exhibit any TNF receptor binding activity | concentration of IL-6 ([2]; test item concentration 1 ng/ml): less than 0.5 pg/ml | concentration of IL-6 ([2]; test item concentration 3 ng/ml): less than 0.5 pg/ml | concentration of IL-6 ([2]; test item concentration 1 mg/ml): less than 0.5 pg/ml | concentration of IL-6 ([2]; test item concentration 10 mg/ml): less than 0.5 pg/ml

CC(=O)N[C@H]1[C@H]([C@H](O)[C@H](O)CO)OC(C(=O)O)=C[C@@H]1N=C(N)N [Zanamivir]
reduction of pulmonary inflammation, as measured by the lung weight ([1]; Example 4: 150 PFU per-nasal, Zanamivir 1.5 mg/kg nasal, AP301 50 μg/test animal intratracheal, lungs on days 7 and 9): just a moderate effect on reducing the pulmonary inflammation
